Test results taken from US20230295087A1, “AGONISTS OF ROR GAMMAt” (BRISTOL-MYERS SQUIBB COMPANY, priority 2019, published 2023).

Biological target: T1, human RORgT (Homo sapiens, UniProt P51449)
T1 construct: expressed in transfected cells
T1 sequence (P51449 267-516): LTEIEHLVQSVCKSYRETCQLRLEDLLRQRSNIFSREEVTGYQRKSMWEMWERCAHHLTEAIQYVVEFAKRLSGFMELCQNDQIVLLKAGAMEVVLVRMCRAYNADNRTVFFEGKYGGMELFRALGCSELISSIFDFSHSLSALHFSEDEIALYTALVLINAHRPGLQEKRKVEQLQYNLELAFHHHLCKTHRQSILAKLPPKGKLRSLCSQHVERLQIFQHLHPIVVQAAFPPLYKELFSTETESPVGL
Assay: RORgT Gal4 Luciferase Reporter Gene Assay
Type: cell-based
Conditions: engineered Jurkat cells overexpressing RORgT (LBD or full length) fused with Gal4 Luc reporter; 18 hours at 37° C.; luminescence
Method in brief: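 Jurkat cells expressing Gal4 Luc with either RORgT LBD (aa267-516) or full-length human RORgT, 10,000 cells/well, treated with compound (40 µM to 0.67 nM final, 3-fold dilutions) for 18 h at 37° C. Steady-Glo luminescence read; inhibition of constitutive activity as % signal-window reduction relative to a control compound.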

Row | EC50 | Structure (SMILES)
1 | 5.8 nM | O=C(C1CCS(=O)(=O)CC1)N1CC[C@@]2(S(=O)(=O)c3ccc(F)cc3)c3ccc(CCc4c(Cl)cccc4Cl)cc3CC[C@@H]12 [Example 161, 4-[(3aR,9bR)-7-[2-(2,6-dichlorophenyl)ethyl]-9b-(4-fluorobenzenesulfonyl)-1H,2H,3H,3aH,4H,5H,9bH-benzo[e]indole-3-carbonyl]-1λ^6-thiane-1,1-dione]
2 | 8.1 nM | NC(=O)N1CCC(C(=O)N2CC[C@@]3(S(=O)(=O)c4ccc(F)cc4)c4ccc(CCc5c(Cl)cccc5Cl)cc4CC[C@@H]23)CC1 [Example 162, 4-[(3aR,9bR)-7-[2-(2,6-dichlorophenyl)ethyl]-9b-(4-fluorobenzenesulfonyl)-1H,2H,3H,3aH,4H5H,9bH-benzo[e]indole-3-carbonyl]piperidine-1-carboxamide]
3 | 12 nM | O=C(C1CCS(=O)(=O)C1)N1CC[C@@]2(S(=O)(=O)c3ccc(F)cc3)c3ccc(OCc4c(F)cccc4Cl)cc3CC[C@@H]12 (stereo partly drawn) [Example 163, 3-[(3aR,9bR)-7-[(2-chloro-6-fluorophenyl)methoxy]-9b-(4-fluorobenzenesulfonyl)-1H,2H,3H,3aH,4H,5H,9bH-benzo[e]indole-3-carbonyl]-1λ^6-thiolane-1,1-dione]
4 | 24 nM | CS(=O)(=O)N1CCC(C(=O)N2CC[C@@]3(S(=O)(=O)c4ccc(F)cc4)c4ccc(OCc5c(F)cccc5Cl)cc4CC[C@@H]23)CC1 [Example 164, 4-[(3aR,9bR)-7-[(2-chloro-6-fluorophenyl)methoxy]-9b-(4-fluorobenzenesulfonyl)-1H,2H,3H,3aH,4H,5H,9bH-benzo[e]indole-3-carbonyl]-1-methanesulfonylpiperidine]
5 | 11 nM | O=C(CN1CCS(=O)(=O)CC1)N1CC[C@@]2(S(=O)(=O)c3ccc(F)cc3)c3ccc(OCc4c(F)cccc4Cl)cc3CC[C@@H]12 [Example 165, 4-{2-[(3aR,9bR)-7-[(2-chloro-6-fluorophenyl)methoxy]-9b-(4-fluorobenzenesulfonyl)-1H,2H,3H,3aH,4H,5H,9bH-benzo[e]indol-3-yl]-2-oxoethyl}-1λ^6-thiomorpholine-1,1-dione]
6 | 7.8 nM | O=C(C1CCS(=O)(=O)CC1)N1CC[C@@]2(S(=O)(=O)c3ccc(F)cc3)c3ccc(OCc4c(F)cccc4Cl)cc3CC[C@@H]12 [Example 166, 4-[(3aR,9bR)-7-[(2-chloro-6-fluorophenyl)methoxy]-9b-(4-fluorobenzenesulfonyl)-1H,2H,3H,3aH,4H,5H,9bH-benzo[e]indole-3-carbonyl]-1λ^6-thiane-1,1-dione]
7 | 13 nM | CC(=O)N1CCC(C(=O)N2CC[C@@]3(S(=O)(=O)c4ccc(F)cc4)c4ccc(OCc5c(F)cccc5Cl)cc4CC[C@@H]23)CC1 [Example 167, 1-{4-[(3aR,9bR)-7-[(2-chloro-6-fluorophenyl)methoxy]-9b-(4-fluorobenzenesulfonyl)-1H,2H,3H,3aH,4H,5H,9bH-benzo[e]indole-3-carbonyl]piperidin-1-yl}ethan-1-one]
8 | 37 nM | COC(=O)[C@H]1CC[C@H](C(=O)N2CC[C@@]3(S(=O)(=O)c4ccc(F)cc4)c4ccc(OCc5c(Cl)cccc5Cl)cc4CC[C@@H]23)CC1 [Example 169, methyl(1r,4r)-4-[(3aR,9bR)-7-[(2,6-dichlorophenyl)methoxy]-9b-(4-fluorobenzenesulfonyl)-1H,2H,3H,3aH,4H,5H,9bH-benzo[e]indole-3-carbonyl]cyclohexane-1-carboxylate]
9 | 14 nM | O=C(C1CCS(=O)(=O)C1)N1CC[C@@]2(S(=O)(=O)c3ccc(F)cc3)c3ccc(OCc4c(Cl)cccc4Cl)cc3CC[C@@H]12 (stereo partly drawn) [Example 170, 3-[(3aR,9bR)-7-[(2,6-dichlorophenyl)methoxy]-9b-(4-fluorobenzenesulfonyl)-1H,2H,3H,3aH,4H,5H,9bH-benzo[e]indole-3-carbonyl]-1λ^6-thiolane-1,1-dione]
10 | 113 nM | CN1CCC(C(=O)N2CC[C@@]3(S(=O)(=O)c4ccc(F)cc4)c4ccc(OCc5c(Cl)cccc5Cl)cc4CC[C@@H]23)CC1 [Example 171, 4-[(3aR,9bR)-7-[(2,6-dichlorophenyl)methoxy]-9b-(4-fluorobenzenesulfonyl)-1H,2H,3H,3aH,4H,5H,9bH-benzo[e]indole-3-carbonyl]-1-methylpiperidine]
